Read-outs that look alike come from different tables or passages of the source.
Tests used:
nerve-ligated rats = assay: Nerve-ligated injury model of neuropathic pain, i.c.v. administration (tactile allodynia, thermal hyperalgesia, acute nociception); format: in vivo, rat; settings: given i.c.v.
[1] = tested on: chick embryo dorsal root ganglia (DRG) neurons; assay: Inhibition of neurite outgrowth (NGF-stimulated DRG neurons); format: cell-based; settings: 0.25 ng/mL NGF, NGF Control 1.000
Protocol: Eight-day chick embryo dorsal root ganglia (DRG) were freed of meninges and removed aseptically. The DRG were kept at 4° C. at all times. Ganglia from six embryos (40-50 per embryo) were washed in Ca^2+-and Mg^2+-free Gey's balanced salt solution (Gibco) and exposed to 0.01% trypsin (Worthington) in the same solution for 10 min at 37° C. A half-volume of phosphate-buffered Gey's balanced salt solution was added for a further 5 min at 37° C. and the reaction was then terminated with one-third volume of Ham's F12 medium (Gibco) containing 5% fetal calf serum (FCS, Gibco). The ganglia were then triturated using a 5 mL narrow-tip pipette to a single cell suspension. Following filtration through […] nylon mesh (Small Parts Inc., Miami, Fla.) in a Millipore chamber to remove clumps, the cell suspension was washed through a 500-ml FCS undercut (700×g for 5 min at 4° C.) and resuspended in 4 mL of Ham's F12 medium plus 5% FCS. The cell suspension was then preplated on a 100-mm Flacon culture dish and incubated for 45-60 min at 37° C. in a 5% CO2 humidified atmosphere. Cells enriched in neurons were decanted for the bioassay, since non-neuronal cells of DRG preferentially stick to the culture substrate.
The inside wells of 96-well Falcon microculture plates were coated with polylysine (0.1 mg/mL) (Sigma) for 4 h at 37° C. (the outside wells were filled with distilled water to provide humidity) and, following a rinse with tissue culture media, […] of neuron-rich cell suspension was added to each well at 10^5 cells/mL. Ninety (90) […] of NGF solution (prepared in tissue culture media) was then added to each well to a final concentration of 0.25 ng/mL NGF per well. […]
The bioassays were read using a Leitz Diavert microscope with phase optics. […] At least 100 neurons per well were counted, and the assay was scored as the ratio of cells bearing neurites greater than one cell diameter to total viable (phase bright) cells.

L5/L6 Nerve Ligated rats = assay: Tactile allodynia, nerve ligation injury model (von Frey paw withdrawal threshold)
[2] = tested on: L5/L6 Nerve Ligated and Sham-Operated Rats; settings: for A50(95% C.L.) Tail Flick- Ligated: L5/L6 nerve ligated rats; for A50(95% C.L.) Tail Flick- Sham: sham-operated rats
[3] = tested on: L5/L6 Nerve Ligated and Sham-Operated Rats; settings: for A50(95% C.L.) Hot Plate- Ligated: L5/L6 nerve ligated rats; for A50(95% C.L.) Hot Plate- Sham: sham-operated rats

O=C1c2cccc3cc([N+](=O)[O-])cc(c23)C(=O)N1CCO [Compound A]
Activity in nerve-ligated injury model of neuropathic pain (nerve-ligated rats): not active
Ratio (cells bearing neurites greater than one cell diameter to total viable cells) ([1]; 5 μM compound): 1.1
Ratio (cells bearing neurites greater than one cell diameter to total viable cells) ([1]; 50 μM compound): 0.16
Ratio (cells bearing neurites greater than one cell diameter to total viable cells) ([1]; 100 μM compound): 0.016
A50(95% C.L.) Allodynia- Ligated (L5/L6 Nerve Ligated rats; i.p.): 38 mg/kg
A50(95% C.L.) Allodynia- Ligated (L5/L6 Nerve Ligated rats; i.th): 34.6 µg
A50(95% C.L.) Tail Flick- Ligated ([2]; i.p.): 27.8 mg/kg
A50(95% C.L.) Tail Flick- Sham ([2]; i.p.): 25.7 mg/kg
A50(95% C.L.) Tail Flick- Ligated ([2]; i.th): 78 µg
A50(95% C.L.) Tail Flick- Sham ([2]; i.th): 34 µg
A50(95% C.L.) Hot Plate- Ligated ([3]; i.p.): 18.6 mg/kg
A50(95% C.L.) Hot Plate- Sham ([3]; i.p.): 34.9 mg/kg
A50(95% C.L.) Hot Plate- Ligated ([3]; i.th): 14.8 µg
A50(95% C.L.) Hot Plate- Sham ([3]; i.th): 48.1 µg

Reference: US7291629B2, “Neurotrophin antagonist compositions” (Painceptor Pharma Corporation, priority 1996, dated 2007)
